We go through 11 compounds from patent publication US20110082212A1, “MULTI-S[…] ANDROGEN RECEPTOR MODULATORS AND METHODS OF USE THEREOF” (priority 2002, published 2011).

One assay addresses T1, androgen receptor (Rattus norvegicus, UniProt P15207).
T1 construct: from tissue; host or cells: Rat ventral prostate cytosol
T1 sequence (P15207 1-902): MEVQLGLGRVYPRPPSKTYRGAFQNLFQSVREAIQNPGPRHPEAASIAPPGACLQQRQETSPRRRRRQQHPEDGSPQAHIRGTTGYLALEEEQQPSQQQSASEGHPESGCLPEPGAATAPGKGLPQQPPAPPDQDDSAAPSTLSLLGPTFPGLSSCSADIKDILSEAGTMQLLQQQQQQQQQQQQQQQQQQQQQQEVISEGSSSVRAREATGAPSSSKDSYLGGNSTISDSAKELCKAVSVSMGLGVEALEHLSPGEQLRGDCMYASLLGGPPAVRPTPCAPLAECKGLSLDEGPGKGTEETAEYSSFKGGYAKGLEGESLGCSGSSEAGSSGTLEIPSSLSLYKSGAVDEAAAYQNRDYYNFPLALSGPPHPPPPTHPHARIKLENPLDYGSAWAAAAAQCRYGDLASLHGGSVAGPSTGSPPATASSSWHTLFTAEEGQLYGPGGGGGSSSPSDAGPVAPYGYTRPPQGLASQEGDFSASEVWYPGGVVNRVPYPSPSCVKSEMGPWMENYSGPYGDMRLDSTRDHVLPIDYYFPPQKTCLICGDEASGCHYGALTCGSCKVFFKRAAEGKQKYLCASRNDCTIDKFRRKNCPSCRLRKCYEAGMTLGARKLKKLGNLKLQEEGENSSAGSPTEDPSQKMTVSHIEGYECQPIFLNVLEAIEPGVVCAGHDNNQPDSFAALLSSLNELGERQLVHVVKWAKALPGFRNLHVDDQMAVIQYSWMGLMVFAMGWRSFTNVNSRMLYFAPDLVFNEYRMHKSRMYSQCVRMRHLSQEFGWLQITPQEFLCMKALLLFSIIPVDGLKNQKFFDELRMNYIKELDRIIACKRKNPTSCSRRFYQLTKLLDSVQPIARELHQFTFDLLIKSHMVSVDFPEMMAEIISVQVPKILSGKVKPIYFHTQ
The assay can be described thus: Androgen receptor binding affinities. The note with it: for RBA: relative binding affinity, androgen receptor.

The test system of assay [1] is castrated male rats (prostate, seminal vesicles, levator ani muscle). In words: Androgenic and anabolic activity of compounds 1 and 2 in castrated rat model (organ weights). It is filed as in vivo, Sprague-Dawley rats. The note with it: 14 days; for Seminal Vesicles weight: intact 101 ± 26.8, castrated 8.1 ± 1.8; for Levator Ani Muscle weight: intact 102 ± 8.1, castrated 40.9 ± 9.4; for Prostate weight: intact 100 ± 14.3, castrated 6.2 ± 2.5. The source says:
Intact Controls (not castrated, untreated) and Castrated Controls (castrated, untreated) were used as the control groups.

The test system of assay [2] is castrated male rats (ventral prostate, seminal vesicles, levator ani muscle). In words: Androgenic and anabolic activity of compound 7 in castrated male rats (organ weights, dose response). Type of assay: in vivo, SD rats. The note with it: 14 days. How it is done:
(§1) Forty-five male SD rats, weighing approximately 200 g, were randomly divided into nine groups with five rats per group. One day before treatment, groups 1 through 8 were castrated via a scrotal incision under anesthesia. Group 9 served as an intact vehicle control. Compound 7 was dissolved in a vehicle containing DMSO (5%, v/v) in PEG 300. Groups 1 through 7 received daily subcutaneous injections of compound 7 at a dose rate of 0.05, 0.1, 0.3, 0.5, 0.75, 1, and 3 mg/day, respectively. Groups 8 and 9 received vehicle. […] This dose rate was chosen based on the results from the aforementioned study in castrated rats. Rats were sacrificed after 14 days treatment. Serum samples were collected and stored at −80° C. The ventral prostate, seminal vesicles, and levator ani muscle were removed, cleared of extraneous tissue, and weighed. All organ weights were normalized to body weight and compared. The weights of the prostate and seminal vesicles were used to evaluate androgenic activity, while the levator ani muscle weight was used as a measurement of anabolic activity.

Assay [3] deals with intact male rats (ventral prostate, seminal vesicles, levator ani muscle). The assay can be described thus: Pharmacologic activity of TP and compound 7 in intact male rats (organ weights). It is filed as in vivo. The note with it: 0.5 mg/day, 14 days. As to the method:
as §1

Another assay deals with LH and FSH levels. In words: Serum LH and FSH levels in castrated rats treated with compound 7 (RIA). Type of assay: in vivo, SD rats. How it is done:
as §1

The subject of another assay is serum testosterone. In words: Serum testosterone concentrations in intact male rats (EIA). Type of assay: in vivo. The settings on record: 0.5 mg/day, 14 days, individual animals (n=5/group), detection limit 0.04 ng/mL, intact rats 4.47±1.66. As to the method: as §1
[4] abbreviates: daily s.c., nonlinear regression of dose-response.

Values joined by “and” are separate entries in the source; they are usually repeats but may differ in a detail not shown here. Equal entries are not always repeated. Where only a bound is given, the exact number is not on record here.

Turning to `C[C@](O)(COc1ccc(F)c(F)c1)C(=O)Nc1ccc([N+](=O)[O-])c(C(F)(F)F)c1` [Compound 1], the RBA on androgen receptor is 17.6%. Besides, in assay [1] (1 mg/d), the “levator ani muscle weight compared with intact animals” value is “maintain the levator ani muscle weight of castrated animals in the same level as that of intact animals”. For the same compound, in assay [1] (1 mg/day via osmotic pump), the “Seminal Vesicles weight” value was found to be 30.9 ± 5.7 and the “Levator Ani Muscle weight” value came out at 122.5 ± 10.4. The Prostate weight in assay [1] (1 mg/day via osmotic pump, normalized to body weight) is 40.3 ± 10.0. For the same compound, in assay [1] (1 mg/day, daily injection), the Prostate weight was 33.1 ± 8.5, the “Seminal Vesicles weight” value worked out at 23.6 ± 8.8 and the “Levator Ani Muscle weight” value came out at 112.8 ± 9.4.
In turn, `C[C@](O)(COc1c(F)c(F)c(F)c(F)c1F)C(=O)Nc1ccc([N+](=O)[O-])c(C(F)(F)F)c1` [Compound 2] showed an RBA at androgen receptor of 13.3%. Further, in assay [1] (1 mg/day, daily injection), the Prostate weight is reported as 7.2 ± 1.4, the “Seminal Vesicles weight” value came to 7.2 ± 0.9 and the “Levator Ani Muscle weight” value came out at 55.83 ± 2.84.
At androgen receptor, `C[C@](O)(COc1ccc(F)c(F)c1F)C(=O)Nc1ccc([N+](=O)[O-])c(C(F)(F)F)c1` [Compound 3] had a Ki of 11.3 ± 1.1 nM and an RBA of 3.1%.
For `C[C@](O)(COc1ccc(F)cc1F)C(=O)Nc1ccc([N+](=O)[O-])c(C(F)(F)F)c1` [Compound 5], in that order: 3.2 ± 0.3 nM and 10.9%.
On to `C[C@](O)(COc1cc(F)cc(F)c1F)C(=O)Nc1ccc([N+](=O)[O-])c(C(F)(F)F)c1` [Compound 6], for which, on androgen receptor, the affinity, expressed as Ki, was 9.1 ± 0.6 nM and the RBA is on record as 3.4%.
As to `C[C@](O)(COc1ccc(Cl)c(F)c1)C(=O)Nc1ccc([N+](=O)[O-])c(C(F)(F)F)c1` [Compound 7], the “organ weights (ventral prostate, seminal vesicles, levator ani muscle) restored relative to intact controls” value in assay [2] (3 mg/day s.c.) is “up to 130%”. In addition, in assay [2] (setting [4]), the “ED50 in levator ani muscle” value was 0.17 ± 0.04 mg/day, the ED50 in prostate was determined as 0.77 ± 0.06 mg/day and the “ED50 in seminal vesicle” value amounted to 0.88 ± 0.14 mg/day. For the same compound, in assay [3], the “effect on levator ani muscle weight” value was “maintained levator ani muscle weight”; the “effect on size of prostate and seminal vesicles” value is “reduced the size of the prostate and seminal vesicles”. In addition, at androgen receptor, the Ki is 4.9 ± 0.3 nM and the RBA was 9.1%. Further, in the assay with LH and FSH levels, the “lowest dose reversing FSH levels back to physiologic levels” value stood at 0.5 mg/day and the “lowest dose reversing LH levels back to physiologic levels” value came to 0.3 mg/day. In the assay on LH and FSH levels (0.1 mg/day, intact control 11.2 ± 2.0, castrated control 63.4 ± 5.0), the FSH is on record as 53.0 ± 5.1 ^I ng/mL. In the assay on LH and FSH levels (0.1 mg/day, intact control <0.2, castrated control 8.4 ± 2.5), the LH is reported as 3.6 ± 0.8 ^I ng/mL. In the assay on LH and FSH levels (0.3 mg/day), the FSH was 26.6 ± 8.9 ^I ng/mL and the LH is <0.2 ^C ng/mL. Besides, in the assay on LH and FSH levels (0.5 mg/day), the FSH was 12.4 ± 1.1 ^C ng/mL and the LH was <0.2 ^C ng/mL. In the assay with LH and FSH levels (0.75 mg/day), the FSH is given as 12.8 ± 1.6 ^C ng/mL and the LH is on record as <0.2 ^C ng/mL. Also, in the assay with serum testosterone, the serum testosterone concentration is < 0.04 ng/mL and 0.11 ng/mL and 0.46 ng/mL.
At androgen receptor, `C[C@](O)(COc1ccc(F)c(Cl)c1)C(=O)Nc1ccc([N+](=O)[O-])c(C(F)(F)F)c1` [Compound 8] displayed a Ki of 10.3 ± 2 nM and an RBA of 4.3%.
For `C[C@](O)(COc1ccc(Cl)c(Cl)c1)C(=O)Nc1ccc([N+](=O)[O-])c(C(F)(F)F)c1` [Compound 9], in that order: 1 ± 0.09 nM and 20.2%.
Regarding `C[C@](O)(COc1ccccc1F)C(=O)Nc1ccc([N+](=O)[O-])c(C(F)(F)F)c1` [Compound 10], on androgen receptor, the Ki was determined as 3.4 ± 0.34 nM and the RBA is 5.9%.
Consider `C[C@](O)(COc1c(F)cc(F)cc1F)C(=O)Nc1ccc([N+](=O)[O-])c(C(F)(F)F)c1` [Compound 11], for which, at androgen receptor, the Ki was 10.3 ± 2 nM.
On to `CCC(=O)O[C@H]1CC[C@H]2[C@@H]3CCC4=CC(=O)CC[C@]4(C)[C@H]3CC[C@]12C` [TP, testosterone propionate, reference compound], for which the “effect on growth of prostate, seminal vesicles and levator ani muscle” value in assay [3] was “stimulated growth in all three organs”.
